Laboratory results as given in patent publication US20210353573A1, “A SOFT-GEL CAPSULE FORMULATION, METHOD OF MANUFACTURE AND USE THEREOF” (Chanelle Pharmaceuticals Manufacturing Ltd., priority 2018, published 2021).

Experiment: Excipient compatibility studies (glycerol)
Format: physicochemical
Details: mixture with glycerol
Experimental: Various studies were carried out to determine an appropriate capsule shell formulation.

ibuprofen lysine [ibuprofen lysinate]
Compatibility with glycerol (colour change indicating degradation): turned brownish
